BindingDB's records for doi:10.1021/acs.jnatprod.0c00921 (Bc Cancer, 2021)

Assay: Inhibition of R1881-stimulated AR transcription driven human LNCaP cells proliferation preincubated for 1 hr followed by R1881 addition and measured after 4 days by Alamar blue assay

CCC(=O)N[C@H](C[C@H](C)C(Cl)(Cl)Cl)C(=O)N1C(=O)C=C(OC)[C@@H]1C[C@H](C)C(Cl)Cl
IC50: 14 µM
